# Measurements as given in patent US20090239841A1, “Diaryl Ureas as CB1 Antagonists” (priority 2004, published 2009).
# Molecular target: T1, hCB1 (Homo sapiens, UniProt P21554)
# T1 construct: made in house; host or cells: Sf9 insect cells (baculovirus), P2 membranes
# Experiment: Agonist-induced GTP binding (GTPγ35S) assay at CB1, Example 8
# Assay type: biochemical
# Conditions: IC50 at CB1, determined as described in Example 8; read-out: IC50
# How it was run: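 Membranes from Sf9 cells co-expressing hCB1 and heterotrimeric G-protein (10 μg protein) in Tris pH 7.4 buffer with 5 μM GDP. Test compounds (10^−10–10^−5 M) competed against 1 nM CP55,940 with […] GTPγ35S, 60 min at room temperature. Filter-bound radioactivity by scintillation, expressed as percent above basal.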
# T1 sequence (P21554 whole entry): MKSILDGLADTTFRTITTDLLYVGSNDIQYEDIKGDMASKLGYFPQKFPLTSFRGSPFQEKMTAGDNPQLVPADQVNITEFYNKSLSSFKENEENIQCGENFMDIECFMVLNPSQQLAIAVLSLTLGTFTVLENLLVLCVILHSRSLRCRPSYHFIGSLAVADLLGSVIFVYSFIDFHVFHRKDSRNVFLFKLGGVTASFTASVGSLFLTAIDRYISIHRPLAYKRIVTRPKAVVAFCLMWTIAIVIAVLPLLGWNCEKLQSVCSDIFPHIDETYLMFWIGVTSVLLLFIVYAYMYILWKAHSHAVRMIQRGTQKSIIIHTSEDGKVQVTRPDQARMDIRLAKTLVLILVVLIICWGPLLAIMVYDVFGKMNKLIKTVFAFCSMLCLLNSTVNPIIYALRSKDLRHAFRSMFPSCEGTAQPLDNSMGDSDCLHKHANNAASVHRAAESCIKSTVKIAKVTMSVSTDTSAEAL
row,IC50 [nM],SMILES
1,< 2000,"CC(=O)c1ccc(NC(=O)Nc2ccc(C(=O)OC(C)C)cc2)cc1 [Compound 514, isopropyl 4-({[(4-acetylphenyl)amino]carbonyl}amino)benzoate]"
2,< 2000,"CCCc1ccc(NC(=O)Nc2ccc(OC(F)(F)F)cc2)cc1 [Compound 519, 1-(4-propylphenyl)-3-[4-(trifluoromethoxy)phenyl]urea]"
3,< 2000,"O=C(Nc1ccc(OC(F)F)cc1)Nc1cccc(Br)c1 [Compound 520, 1-(3-bromophenyl)-3-[4-(difluoromethoxy)phenyl]urea]"
4,< 2000,"CCCc1ccc(NC(=O)Nc2ccc(OC)cc2)cc1 [Compound 525, 1-(4-methoxyphenyl)-3-(4-propylphenyl)urea]"
5,< 2000,"CCCc1ccc(NC(=O)Nc2ccc(OCC)cc2)cc1 [Compound 526, 1-(4-ethoxyphenyl)-3-(4-propylphenyl)urea]"
6,< 2000,"CC(C)c1ccc(NC(=O)Nc2ccc([N+](=O)[O-])cc2)cc1 [Compound 528, 1-(4-isopropylphenyl)-3-(4-nitrophenyl)urea]"
7,< 2000,"CCCOc1ccc(NC(=O)Nc2ccccc2OC(F)F)cc1 [Compound 534, 1-[2-(difluoromethoxy)phenyl]-3-(4-propoxyphenyl)urea]"
8,< 2000,"O=C(Nc1cccc(OC(F)F)c1)Nc1ccccc1OC(F)(F)F [Compound 541, 1-[3-(difluoromethoxy)phenyl]-3-[2-(trifluoromethoxy)phenyl]urea]"
9,< 2000,"CCOc1cccc(NC(=O)Nc2ccc(OC)cc2)c1 [Compound 542, 1-(3-ethoxyphenyl)-3-(4-methoxyphenyl)urea]"
10,< 2000,"CCCOc1ccc(NC(=O)Nc2ccc(OC)cc2)cc1 [Compound 547, 1-(4-methoxyphenyl)-3-(4-propoxyphenyl)urea]"
11,< 2000,"COc1ccc(NC(=O)Nc2cccc(OC(C)C)c2)cc1 [Compound 549, 1-(3-isopropoxyphenyl)-3-(4-methoxyphenyl)urea]"
12,< 2000,"CCOc1ccc(NC(=O)Nc2cccc(OC(C)C)c2)cc1 [Compound 550, 1-(4-ethoxyphenyl)-3-(3-isopropoxyphenyl)urea]"
13,< 2000,"COc1cccc(NC(=O)Nc2cccc(OC(F)F)c2)c1 [Compound 553, 1-[3-(difluoromethoxy)phenyl]-3-(3-methoxyphenyl)urea]"
14,< 2000,"COc1ccc(NC(=O)Nc2cccc(OC(F)F)c2)cc1 [Compound 554, 1-[3-(difluoromethoxy)phenyl]-3-(4-methoxyphenyl)urea]"
15,< 2000,"CCOc1cccc(NC(=O)Nc2ccc([N+](=O)[O-])cc2)c1 [Compound 558, 1-(3-ethoxyphenyl)-3-(4-nitrophenyl)urea]"
16,< 2000,"CCOc1ccc(NC(=O)Nc2cccc([N+](=O)[O-])c2)cc1 [Compound 559, 1-(4-ethoxyphenyl)-3-(3-nitrophenyl)urea]"
17,< 2000,"COCc1ccc(NC(=O)Nc2ccc([N+](=O)[O-])cc2)cc1 [Compound 561, 1-[4-(methoxymethyl)phenyl]-3-(4-nitrophenyl)urea]"
18,< 2000,"CC(C)Oc1cccc(NC(=O)Nc2ccc([N+](=O)[O-])cc2)c1 [Compound 563, 1-(3-isopropoxyphenyl)-3-(4-nitrophenyl)urea]"
19,< 2000,"O=C(Nc1cccc(OC(F)F)c1)Nc1cccc([N+](=O)[O-])c1 [Compound 565, 1-[3-(difluoromethoxy)phenyl]-3-(3-nitrophenyl)urea]"
20,< 2000,"O=C(Nc1ccc([N+](=O)[O-])cc1)Nc1cccc(OC(F)F)c1 [Compound 566, 1-[3-(difluoromethoxy)phenyl]-3-(4-nitrophenyl)urea]"
21,< 2000,"O=C(Nc1ccc(OC(F)F)cc1)Nc1cccc([N+](=O)[O-])c1 [Compound 568, 1-[4-(difluoromethoxy)phenyl]-3-(3-nitrophenyl)urea]"
22,< 2000,"O=C(Nc1ccc(OC(F)F)cc1)Nc1ccc([N+](=O)[O-])cc1 [Compound 569, 1-[4-(difluoromethoxy)phenyl]-3-(4-nitrophenyl)urea]"
23,< 2000,"CCOc1cccc(NC(=O)Nc2ccc(C(C)C)cc2)c1 [Compound 570, 1-(3-ethoxyphenyl)-3-(4-isopropylphenyl)urea]"

# Further lines, the compound ahead of its results:
row,SMILES,IC50 [nM]
1,"CC(=O)c1cccc(NC(=O)Nc2ccc(C(=O)OC(C)C)cc2)c1 [Compound 513, isopropyl 4-({[(3-acetylphenyl)amino]carbonyl}amino)benzoate]",< 2000
2,"CCc1ccc(NC(=O)Nc2ccccc2[N+](=O)[O-])cc1 [Compound 515, 1-(4-ethylphenyl)-3-(2-nitrophenyl)urea]",< 2000
3,"CCc1ccc(NC(=O)Nc2ccc(OC(F)(F)F)cc2)cc1 [Compound 517, 1-(4-ethylphenyl)-3-[4-(trifluoromethoxy)phenyl]urea]",< 2000
4,"CC(C)c1ccc(NC(=O)Nc2ccc(OC(F)F)cc2)cc1 [Compound 518, 1-[4-(difluoromethoxy)phenyl]-3-(4-isopropylphenyl)urea]",< 2000
5,"COc1cccc(NC(=O)Nc2ccc(C(C)C)cc2)c1 [Compound 521, 1-(4-isopropylphenyl)-3-(3-methoxyphenyl)urea]",< 2000
6,"COc1ccc(NC(=O)Nc2ccc(C(C)C)cc2)cc1 [Compound 522, 1-(4-isopropylphenyl)-3-(4-methoxyphenyl)urea]",< 2000
7,"CCCc1ccc(NC(=O)Nc2cccc(OC)c2)cc1 [Compound 524, 1-(3-methoxyphenyl)-3-(4-propylphenyl)urea]",< 2000
8,"CCc1ccc(NC(=O)Nc2cccc([N+](=O)[O-])c2)cc1 [Compound 527, 1-(4-ethylphenyl)-3-(3-nitrophenyl)urea]",< 2000
9,"CCCc1ccc(NC(=O)Nc2ccc([N+](=O)[O-])cc2)cc1 [Compound 529, 1-(4-nitrophenyl)-3-(4-propylphenyl)urea]",< 2000
10,"COc1ccc(NC(=O)Nc2ccc(OC(F)F)cc2)cc1 [Compound 530, 1-[4-(difluoromethoxy)phenyl]-3-(4-methoxyphenyl)urea]",< 2000
11,"CCOc1cccc(NC(=O)Nc2ccc(OC(F)(F)F)cc2)c1 [Compound 531, 1-(3-ethoxyphenyl)-3-[4-(trifluoromethoxy)phenyl]urea]",< 2000
12,"CCOc1ccc(NC(=O)Nc2ccc(OC(F)(F)F)cc2)cc1 [Compound 532, 1-(4-ethoxyphenyl)-3-[4-(trifluoromethoxy)phenyl]urea]",< 2000
13,"COCc1ccc(NC(=O)Nc2ccc(OC(F)F)cc2)cc1 [Compound 533, 1-[4-(difluoromethoxy)phenyl]-3-[4-(methoxymethyl)phenyl]urea]",< 2000
14,"CCCOc1ccc(NC(=O)Nc2ccc(OC(F)(F)F)cc2)cc1 [Compound 535, 1-(4-propoxyphenyl)-3-[4-(trifluoromethoxy)phenyl]urea]",< 2000
15,"CC(C)Oc1cccc(NC(=O)Nc2ccc(OC(F)(F)F)cc2)c1 [Compound 536, 1-(3-isopropoxyphenyl)-3-[4-(trifluoromethoxy)phenyl]urea]",< 2000
16,"CC(C)Oc1ccc(NC(=O)Nc2ccccc2OC(F)F)cc1 [Compound 537, 1-[2-(difluoromethoxy)phenyl]-3-(4-isopropoxyphenyl)urea]",< 2000

row,SMILES,IC50 [nM]
1,"CC(C)Oc1ccc(NC(=O)Nc2ccc(OC(F)(F)F)cc2)cc1 [Compound 538, 1-(4-isopropoxyphenyl)-3-[4-(trifluoromethoxy)phenyl]urea]",< 2000
2,"O=C(Nc1cccc(OC(F)F)c1)Nc1ccccc1OC(F)F [Compound 539, 1-[2-(difluoromethoxy)phenyl]-3-[3-(difluoromethoxy)phenyl]urea]",< 2000
3,"O=C(Nc1ccc(OC(F)(F)F)cc1)Nc1cccc(OC(F)F)c1 [Compound 540, 1-[3-(difluoromethoxy)phenyl]-3-[4-(trifluoromethoxy)phenyl]urea]",< 2000
4,"CCOc1ccc(NC(=O)Nc2cccc(OCC)c2)cc1 [Compound 543, 1-(3-ethoxyphenyl)-3-(4-ethoxyphenyl)urea]",< 2000
5,"COCc1ccc(NC(=O)Nc2cccc(OC)c2)cc1 [Compound 544, 1-[4-(methoxymethyl)phenyl]-3-(3-methoxyphenyl)urea]",< 2000
6,"COCc1ccc(NC(=O)Nc2ccc(OC)cc2)cc1 [Compound 545, 1-[4-(methoxymethyl)phenyl]-3-(4-methoxyphenyl)urea]",< 2000
7,"CCCOc1ccc(NC(=O)Nc2cccc(OC)c2)cc1 [Compound 546, 1-(3-methoxyphenyl)-3-(4-propoxyphenyl)urea]",< 2000
8,"COc1cccc(NC(=O)Nc2cccc(OC(C)C)c2)c1 [Compound 548, 1-(3-isopropoxyphenyl)-3-(3-methoxyphenyl)urea]",< 2000
9,"COc1cccc(NC(=O)Nc2ccc(OC(C)C)cc2)c1 [Compound 551, 1-(4-isopropoxyphenyl)-3-(3-methoxyphenyl)urea]",< 2000
10,"COc1ccc(NC(=O)Nc2ccc(OC(C)C)cc2)cc1 [Compound 552, 1-(4-isopropoxyphenyl)-3-(4-methoxyphenyl)urea]",< 2000
11,"CCOc1ccc(NC(=O)Nc2cccc(OC(F)F)c2)cc1 [Compound 555, 1-[3-(difluoromethoxy)phenyl]-3-(4-ethoxyphenyl)urea]",< 2000
12,"COc1cccc(NC(=O)Nc2ccc([N+](=O)[O-])cc2)c1 [Compound 556, 1-(3-methoxyphenyl)-3-(4-nitrophenyl)urea]",< 2000
13,"COc1ccc(NC(=O)Nc2ccc([N+](=O)[O-])cc2)cc1 [Compound 557, 1-(4-methoxyphenyl)-3-(4-nitrophenyl)urea]",< 2000
14,"CCOc1ccc(NC(=O)Nc2ccc([N+](=O)[O-])cc2)cc1 [Compound 560, 1-(4-ethoxyphenyl)-3-(4-nitrophenyl)urea]",< 2000
15,"CCCOc1ccc(NC(=O)Nc2ccc([N+](=O)[O-])cc2)cc1 [Compound 562, 1-(4-nitrophenyl)-3-(4-propoxyphenyl)urea]",< 2000
16,"CC(C)Oc1ccc(NC(=O)Nc2ccc([N+](=O)[O-])cc2)cc1 [Compound 564, 1-(4-isopropoxyphenyl)-3-(4-nitrophenyl)urea]",< 2000
